Assay [1] concerns the target T1, Erk1 (Homo sapiens (Human), UniProt P27361). As to the kind of experiment: Protein Mass Modification Assay (intact protein MALDI). In kind it is binding. Put shortly:
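Human Erk1 was incubated 60 min at room temperature with a 10-fold molar excess of compound, then analysed as intact protein by MALDI with sinapinic acid matrix. The centroid mass shift versus untreated protein was divided by compound molecular weight to give percent modified protein.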
Target sequence in this assay (P27361 whole entry, looked up): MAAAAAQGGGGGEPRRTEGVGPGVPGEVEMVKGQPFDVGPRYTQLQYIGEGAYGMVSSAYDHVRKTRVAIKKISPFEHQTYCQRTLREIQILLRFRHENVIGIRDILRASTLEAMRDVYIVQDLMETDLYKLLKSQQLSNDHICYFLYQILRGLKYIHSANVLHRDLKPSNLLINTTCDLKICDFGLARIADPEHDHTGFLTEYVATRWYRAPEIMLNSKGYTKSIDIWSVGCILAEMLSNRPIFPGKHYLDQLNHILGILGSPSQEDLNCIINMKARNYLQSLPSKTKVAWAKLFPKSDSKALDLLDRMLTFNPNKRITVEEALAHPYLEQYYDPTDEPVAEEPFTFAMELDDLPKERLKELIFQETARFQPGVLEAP

The target in the next assay is MEK1 activated ERK1 (Homo sapiens (Human), UniProt P27361). As to the kind of experiment: Omnia continuous-read kinase assay for potency against MEK1 activated ERK1. Type of assay: biochemical. As to conditions: MEK1 activated ERK1, WT, ATP at KM. Put shortly:
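Apparent IC50 came from initial reaction slopes (RFU vs time) plotted against log inhibitor with a variable-slope fit. Reactions were started with ERK1 (4 nM final) added to 50 μM ATP, roughly at its appKM, and 10 μM Sox-conjugated ST17 peptide in 20 mM Tris pH 7.5, 5 mM MgCl2. Fluorescence was monitored every 71 seconds.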

Assay [2] has as its target T1, Erk1. The experiment in a line: Measurement of Erk occupancy with biotinylated covalent probe I-299. In kind it is cell-based. As to conditions: HT-29 cells. As to the method:
Measurement of Erk Occupancy with Biotinylated Covalent Probe
This experiment measured occupancy of the ERK1 target by compounds according to the invention. This experiment was conducted using the Mesoscale Discovery test kit (Cat. #N45107B). One day before the assay, cells were split and added at 50,000 cells per well to a flat-bottom 96 well plate in 200 μl of growth medium. The next day, the medium was discarded, 100 μl medium containing test compound was added, and the plate was incubated at 37° C. for 120 minutes. The plate was rinsed once with PBS, and 50 μl lysis buffer with test compound was added. The plate was incubated at 4° C. for 30 min, and 30 μl of lysate was transferred to a plate to capture total and phosphor-Erk. Biotinylated probe I-299 was diluted in lysis buffer and added to each well to a final concentration of 0.2 μM. The plate was incubated for 2 hr under constant shaking at room temperature. The plate was washed 3 times with MSD wash buffer. To detect the biotinylated probe bonding, tagged streptavidin was added (MSD, Cat#R32AD-1) at 1 μg/ml, 25 μl/well, followed by a 60 min incubation under shaking. The plate was washed 3 times, 150 μl MSD Read Buffer (Cat#R61TX) was added and the plate was read in a plate reader manufactured by MSD. Percent occupancy by test compound at Erk was calculated by comparing the chemiluminescence readings from treated cells as compared to the chemiluminescence readings in untreated controls (which are defined as 100% probe bonding or 0% occupancy). The amount of covalent probe signal divided by the amount of ERK signal for samples with no test compound treatment represents the maximum probe signal (MPS). In samples treated with test compound prior to covalent probe, the ratio of probe signal to ERK signal (the test probe signal, TPS) was reduced by the degree of target occupancy by the test compound which blocks covalent probe binding. The difference between the MPS and the TPS, divided by the MPS gave the target occupancy by the test compound. This ratio was then expressed as a percent occupancy. Results from this assay are provided in Table A below under the column “Occupancy EC50 (nM) HT-29.”
Target sequence in this assay (P27361 2-379 limits assumed): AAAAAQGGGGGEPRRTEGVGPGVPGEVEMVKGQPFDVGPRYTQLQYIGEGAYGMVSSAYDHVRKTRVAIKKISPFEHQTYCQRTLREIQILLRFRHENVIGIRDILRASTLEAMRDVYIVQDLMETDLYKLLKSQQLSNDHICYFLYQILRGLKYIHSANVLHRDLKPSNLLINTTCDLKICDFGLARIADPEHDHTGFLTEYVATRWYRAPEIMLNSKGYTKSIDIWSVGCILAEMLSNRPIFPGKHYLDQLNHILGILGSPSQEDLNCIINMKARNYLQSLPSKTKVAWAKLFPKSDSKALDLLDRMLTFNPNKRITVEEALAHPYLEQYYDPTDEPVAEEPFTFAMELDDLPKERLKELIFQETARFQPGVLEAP

The test system of assay [3] is p-RSK (ERK activity) in cells after compound washout. The experiment in a line: Measurement of duration of action of test compounds (pRSK after washout). In kind it is cell-based. The settings on record: 6 hr after compound washout. As for the experimental part: The protocol below describes an assay to measure the kinase activity of ERK1 to phosphorylate its substrate, RSK, in the presence of a test compound. This experiment was conducted using a Mesoscale Discovery plate. The day before the assay, HT29 cells were split and plated at 50,000 cells/well in complete growth media. After allowing cells to adhere, the media was removed and replaced with media containing 0.1% FBS and incubated overnight. Blank MDS plates were coated with 25 μl/well RSK capture antibody and incubated at 4° C. overnight. The next day, the media was removed and replaced with 100 μl of media containing a test compound and incubated for 120 minutes at 37° C. The media was removed and replaced with 55 μl of well lysis buffer with protease and phosphatase inhibitors provided in the kit, followed by incubation at 4° C. for 30 minutes. 50 μl of lysate was transferred to a blocked MSD plate, followed by incubation at room temperature for 2 hours under constant shaking. The plate was washed 3 times with MSD wash buffer (cat#R617TX), and 25 μl/well phospho-RSK (pRSK) detection antibody was added with an appropriate Sulfo-tagged anti-species detection antibody diluted in 1% BSA in MSD wash buffer. This mixture was incubated for 1 hour at room temperature under constant shaking. The plate was washed 3 times, and 150 μl 1×MSD read buffer was added, followed by signal detection in an MSD plate reader.
Measurement of Duration of Action of Test Compounds
One day before the assay, the cells were split and added at 50,000 cells per well in flat-bottom 96 well plate in 200 μl of growth media. The next day, the medium was discarded, 100 μl medium containing test compounds was added, and the plate was incubated at 37° C. for 120 minutes. The medium was discarded, and the cells were rinsed 3 times with PBS followed by addition of 200 μl of fresh grow medium. The plate was returned to a 37° C. incubator, and separate cell lysates were made using MSD lysis buffer after 0.25, 0.5, 1, 2, 4, 6, 8 and 18 or 24 hours. Thereafter, pRSK was measured as described above in the section entitled pRSK MSD Assay. The data is presented in Table A under the column titled “p-RSK inhibition at 6 hr (%).”

The test system of assay [4] is ERK1 phosphorylation of its substrate RSK in HT29 cells. The experiment in a line: pRSK MSD Assay in HT29 cells. The settings on record: Homo sapiens, HT-29, HT29 cells; read-out: ERK1 PRSK MSD HT29 EC50. In kind it is cell-based. The method in brief:
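HT29 cells were serum-starved overnight in 0.1% FBS, then treated with compound for 120 min at 37 °C. Lysates were assayed on MSD plates with RSK capture and phospho-RSK detection antibodies using electrochemiluminescence read-out.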

Each structure is given as a SMILES string. A value given as a limit tells only on which side of the number the result lay.

Sequence of MEK1 activated ERK1 (P27361 whole entry): as the sequence (P27361 whole entry, looked up) above

As to `C=CC(=O)Nc1ccccc1Nc1nc(Nc2cc(C(N)=O)ccc2C)ncc1C(F)(F)F` [Compound I-68, 3-(4-(2-Acrylamidophenylamino)-5-(trifluoromethyl)pyrimidin-2-ylamino)-4-methylbenzamide], the “ERK1 Mass Mod (%)” value on Erk1 [1] was “E (provided a mass modification of ≧70%)”. The IC50 (in general, the concentration needed to halve the response being measured) at MEK1 activated ERK1 is below 100 nM. Also, the EC50 (in general, the midpoint of the concentration-response curve) on Erk1 [2] is below 100 nM. In addition, the “p-RSK inhibition at 6 hr (%)” value in assay [3] is reported as “E (provided a p-RSK inhibition percent of ≧70%)”.

As for `C=CC(=O)Nc1ccccc1Nc1nc(N[C@H]2CCCN(C(=O)CO)C2)ncc1C(F)(F)F` [Compound I-15, (S)—N-(2-((2-((1-(2-hydroxyacetyl)piperidin-3-yl)amino)-5-(trifluoromethyl)pyrimidin-4-yl)amino)phenyl)acrylamide], at Erk1 [1], the “ERK1 Mass Mod (%)” value is “E (provided a mass modification of ≧70%)”. Besides, the half-inhibitory concentration (IC50) on MEK1 activated ERK1 was below 100 nM. The EC50 in assay [4] was below 100 nM. In assay [3], the “p-RSK inhibition at 6 hr (%)” value is recorded as “E (provided a p-RSK inhibition percent of ≧70%)”.

For the compound `C=CC(=O)Nc1cc(C)ccc1Nc1nc(N[C@H]2CCCN(C(=O)CO)C2)ncc1Cl` [Compound I-140, (S)—N-(2-((5-chloro-2-((1-(2-hydroxyacetyl)piperidin-3-yl)amino)pyrimidin-4-yl)amino)-5-methylphenyl)acrylamide], on Erk1 [1], the “ERK1 Mass Mod (%)” value was “E (provided a mass modification of ≧70%)”. At MEK1 activated ERK1, the IC50 is below 100 nM. Also, the “p-RSK inhibition at 6 hr (%)” value in assay [3] was “F (provided a p-RSK inhibition percent of 31-69%)”.

For the origin of these results see patent US9796700B2 (Celgene CAR LLC, priority 2013, dated 2017).
